The text below walks through data of patent publication US20150259344A1, “IMIDAZOLE DERIVATIVE” (DAINIPPON SUMITOMO PHARMA CO., LTD., priority 2012, published 2015).

Structures are written as SMILES.

The target in the first experiment is T1, human α7 nAChR (Homo sapiens, UniProt P36544).
T1 construct: expressed in transfected cells
T1 sequence (P36544 23-502): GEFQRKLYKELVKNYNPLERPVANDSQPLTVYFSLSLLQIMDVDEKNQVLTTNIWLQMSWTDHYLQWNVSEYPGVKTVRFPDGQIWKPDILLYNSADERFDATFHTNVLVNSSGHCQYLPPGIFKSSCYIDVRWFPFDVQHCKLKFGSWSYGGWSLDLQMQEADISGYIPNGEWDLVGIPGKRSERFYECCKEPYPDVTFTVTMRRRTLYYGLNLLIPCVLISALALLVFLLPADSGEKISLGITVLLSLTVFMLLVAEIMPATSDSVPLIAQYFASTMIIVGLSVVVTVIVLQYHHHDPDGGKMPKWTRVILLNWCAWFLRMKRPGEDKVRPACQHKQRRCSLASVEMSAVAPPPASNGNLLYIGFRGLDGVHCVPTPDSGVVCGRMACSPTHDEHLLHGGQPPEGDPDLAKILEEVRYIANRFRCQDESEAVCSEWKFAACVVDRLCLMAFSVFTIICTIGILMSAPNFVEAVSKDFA
The experiment in a line: Evaluation of PAM activity with human α7 nACh receptor stably expressing cells (aequorin luminescence, FDSS7000). The experiment is classed as cell-based. The following applies: 1 μM test compound (values marked *, footnote of Table 25); ACh at EC20; ratio of RLU (Max-Min) to control wells; read-out: α7PAM (%) @1 μM. In a few lines: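 Human α7 nAChR stable cells loaded with 4 μM Viviren (final) for 4 h at room temperature in the dark. Compounds in Hanks/20 mM HEPES/0.2% BSA were added and luminescence recorded on FDSS7000. PAM activity = RLU (Max-Min) ratio of test wells to control wells.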
In the case of `CC(C)(F)C(=O)N[C@H]1CC[C@@H](n2cnc(-c3ccc(F)c(OC(F)(F)F)c3)c2)CC1` [Example 295], the activity at 1 µM was found to be 444%. Take `CC(C)(F)C(=O)N[C@H]1CC[C@@H](n2cnc(-c3ccc(OC(F)(F)F)c(F)c3)c2)CC1` [Example 296]: the activity at 1 µM was found to be 589%.

Consider `CC(C)(F)C(=O)N[C@H]1CC[C@@H](n2cnc(-c3cc(OC(F)(F)F)ccc3F)c2)CC1` [Example 304], for which the activity at 1 µM was 600%.

Take `COc1cc(-c2cn([C@H]3CC[C@@H](NC(=O)C(C)(C)F)CC3)cn2)ccc1Cl` [Example 309]: the activity at 1 µM was 181%.

For the compound `CC(C)(F)C(=O)N[C@H]1CC[C@@H](n2cnc(-c3cc(F)c(F)cc3F)c2)CC1` [Example 313], the activity at 1 µM came to 273%. On the same count and under the same terms, the result for `CC(C)(F)C(=O)N[C@H]1CC[C@@H](n2cnc(-c3cc(F)c(Cl)cc3F)c2)CC1` [Example 316] reads 267%. For `CC(C)(F)C(=O)N[C@H]1CC[C@@H](n2cnc(-c3cc(F)c(F)cc3Cl)c2)CC1` [Example 317], the activity at 1 µM turned out to be 345%. Still for that read-out and setting: the result for `CC(C)(F)C(=O)N[C@H]1CC[C@@H](n2cnc(-c3cc(Cl)c(F)cc3F)c2)CC1` [Example 318] reads 179%.

As for `CC(C)(F)C(=O)N[C@H]1CC[C@@H](n2cnc(-c3cc(OC(F)(F)F)ccc3F)c2Cl)CC1` [Example 328], the activity at 1 µM was determined as 859%. Consider `CC(C)(F)C(=O)N[C@H]1CC[C@@H](n2cnc(-c3ccccc3OC(F)(F)F)c2Cl)CC1` [Example 331], for which the activity at 1 µM was 467%. As for `CC(C)(C)C(=O)N[C@H]1CC[C@@H](n2cnc(-c3ccc(Cl)cc3)c2C#N)CC1` [Example 334], the activity at 1 µM worked out at 212%.

The same experiment, now with this note: 10 μM test compound; ACh at EC20; ratio of RLU (Max-Min) to control wells.
`CC(C)(F)C(=O)N[C@H]1CC[C@@H](n2cnc(-c3ccc(F)cc3)c2)CC1` [Example 277]: the “α7PAM (%) @10 μM” value is on record as 424%.

The same experiment, now with this note: 10 μM test compound; ACh at EC20; ratio of RLU (Max-Min) to control wells; read-out: α7PAM (%) @10 μM.
For `COc1ccc(-c2ncn(C3CCN(C(=O)C4CCC(F)(F)CC4)CC3)c2C#N)cc1` [Example 265], the activity at 10 µM came to 990%. In the case of `CC(C)(F)C(=O)N1CCC(n2cnc(-c3ccc(F)cc3)c2C#N)CC1` [Example 266], the activity at 10 µM stood at 149%. For the compound `N#Cc1c(-c2ccc(F)cc2)ncn1C1CCN(C(=O)C2CC(F)(F)C2)CC1` [Example 267], the activity at 10 µM is 594%.

Take `N#Cc1c(-c2ccccc2)ncn1C1CCN(C(=O)C2CC(F)(F)C2)CC1` [Example 268]: the activity at 10 µM is 725%. In the case of `N#Cc1c(-c2cccc(F)c2)ncn1C1CCN(C(=O)C2CC(F)(F)C2)CC1` [Example 269], the activity at 10 µM is 452%. The same measure, in the same setting: the result for `N#Cc1c(-c2ccccc2F)ncn1C1CCN(C(=O)C2CC(F)(F)C2)CC1` [Example 270] reads 569%; that for `N#Cc1c(-c2ccc(F)cc2F)ncn1C1CCN(C(=O)C2CCC(F)(F)CC2)CC1` [Example 271], 275%.

For `N#Cc1c(-c2cccc(F)c2F)ncn1C1CCN(C(=O)C2CCC(F)(F)CC2)CC1` [Example 272], the activity at 10 µM came to 138%. Regarding `N#Cc1c(-c2ccc(F)c(F)c2)ncn1C1CCN(C(=O)C2CCC(F)(F)CC2)CC1` [Example 273], the activity at 10 µM amounted to 139%.

Turning to `N#Cc1c(-c2cc(F)ccc2F)ncn1C1CCN(C(=O)C2CCC(F)(F)CC2)CC1` [Example 274], the activity at 10 µM came to 351%. The same measure, in the same setting: the result for `Cc1c(-c2ccc(F)cc2)ncn1C1CCN(C(=O)C2CCC(F)(F)CC2)CC1` [Example 275] reads 912%.

Consider `Cc1c(-c2ccc(F)cc2)ncn1C1CCN(C(=O)C2CCOCC2)CC1` [Example 276], for which the activity at 10 µM came to 244%. The same measure, in the same setting: the result for `CC(C)(F)C(=O)N[C@H]1CC[C@@H](n2cnc(-c3ccc(OC(F)(F)F)cc3)c2)CC1` [Example 278] reads 834%; that for `CC(C)(C)C(=O)N[C@H]1CC[C@@H](n2cnc(-c3ccc(OC(F)(F)F)cc3)c2)CC1` [Example 279], 236%. Still for that read-out and setting: the result for `CC(C)(C)C(=O)N[C@H]1CC[C@@H](n2cnc(-c3ccc(Cl)cc3)c2)CC1` [Example 281] reads 411%; that for `O=C(N[C@H]1CC[C@@H](n2cnc(-c3ccc(F)cc3)c2)CC1)C1CCOCC1` [Example 282], 229%. Same read-out and setting: the result for `CC(C)(F)C(=O)N[C@H]1CC[C@@H](n2cnc(-c3ccc(Cl)cc3F)c2)CC1` [Example 283, N-{cis-4-[4-(4-chloro-2-fluorophenyl)-1H-imidazol-1-yl]cyclohexyl}-2-fluoro-2-methylpropanamide] reads 390%; that for `CC(C)(F)C(=O)N[C@H]1CC[C@@H](n2cnc(-c3cc(Cl)ccc3F)c2)CC1` [Example 284], 398%; that for `COc1ccc(-c2cn([C@H]3CC[C@@H](NC(=O)C(C)(C)F)CC3)cn2)cc1` [Example 285], 869%.

Turning to `CC(C)(F)C(=O)N[C@H]1CC[C@@H](n2cnc(-c3cccc(Cl)c3)c2)CC1` [Example 286], the activity at 10 µM was found to be 469%.

`CC(F)(F)C(=O)N[C@H]1CC[C@@H](n2cnc(-c3ccc(F)cc3)c2)CC1` [Example 288]: the activity at 10 µM was determined as 327%. On the same count and under the same terms, the result for `O=C(N[C@H]1CC[C@@H](n2cnc(-c3ccc(F)cc3)c2)CC1)C(F)F` [Example 289] reads 125%.

As to `CC(C)(C(=O)N[C@H]1CC[C@@H](n2cnc(-c3ccc(F)cc3)c2)CC1)C(F)(F)F` [Example 290], the activity at 10 µM is 194%. Same read-out and setting: the result for `CC(F)(F)C(=O)N[C@H]1CC[C@@H](n2cnc(-c3ccc(Cl)cc3)c2)CC1` [Example 291] reads 420%; that for `O=C(N[C@H]1CC[C@@H](n2cnc(-c3ccc(Cl)cc3)c2)CC1)C(F)F` [Example 292], 101%.

Take `CC(C)(C(=O)N[C@H]1CC[C@@H](n2cnc(-c3ccc(Cl)cc3)c2)CC1)C(F)(F)F` [Example 293]: the activity at 10 µM came to 211%. On the same count and under the same terms, the result for `CC(C)(F)C(=O)N[C@H]1CC[C@@H](n2cnc(-c3cccc(F)c3)c2)CC1` [Example 294] reads 326%; that for `CC(C)(F)C(=O)N[C@H]1CC[C@@H](n2cnc(-c3ccccc3F)c2)CC1` [Example 297], 866%. The same measure, in the same setting: the result for `CC(C)(F)C(=O)N[C@H]1CC[C@@H](n2cnc(-c3cccc(OC(F)(F)F)c3)c2)CC1` [Example 298] reads 166%; that for `CC(C)(F)C(=O)N[C@H]1CC[C@@H](n2cnc(-c3cccc(F)c3F)c2)CC1` [Example 299], 893%.

With `CC(C)(F)C(=O)N[C@H]1CC[C@@H](n2cnc(-c3cc(F)ccc3F)c2)CC1` [Example 301], the activity at 10 µM turned out to be 828%. The same measure, in the same setting: the result for `CC(C)(F)C(=O)N[C@H]1CC[C@@H](n2cnc(-c3cc(F)cc(F)c3)c2)CC1` [Example 302] reads 325%; that for `CC(C)(F)C(=O)N[C@H]1CC[C@@H](n2cnc(-c3ccc(OC(F)(F)F)cc3F)c2)CC1` [Example 303], 208%. Consider `COc1ccc(-c2cn([C@H]3CC[C@@H](NC(=O)C(C)(C)F)CC3)cn2)c(F)c1` [Example 307], for which the activity at 10 µM worked out at 634%. Regarding `COc1ccc(-c2cn([C@H]3CC[C@@H](NC(=O)C(C)(C)F)CC3)cn2)cc1Cl` [Example 308], the activity at 10 µM turned out to be 513%. Still for that read-out and setting: the result for `CC(C)(F)C(=O)N[C@H]1CC[C@@H](n2cnc(-c3ccc(F)c(F)c3)c2)CC1` [Example 310] reads 227%; that for `CC(C)(F)C(=O)N[C@H]1CC[C@@H](n2cnc(-c3ccccc3OC(F)(F)F)c2)CC1` [Example 311], 290%; that for `CC(C)(F)C(=O)N[C@H]1CC[C@@H](n2cnc(-c3ccc(F)c(F)c3F)c2)CC1` [Example 312], 662%. Consider `CC(C)(F)C(=O)N[C@H]1CC[C@@H](n2cnc(-c3c(F)cc(F)cc3F)c2)CC1` [Example 314], for which the activity at 10 µM amounted to 591%.

For `CC(C)(F)C(=O)N[C@H]1CC[C@@H](n2cnc(-c3c(F)cccc3F)c2)CC1` [Example 315], the activity at 10 µM was 501%. As for `COc1cc(F)c(-c2cn([C@H]3CC[C@@H](NC(=O)C(C)(C)F)CC3)cn2)cc1F` [Example 319], the activity at 10 µM turned out to be 328%. On the same count and under the same terms, the result for `CC(C)(C)C(=O)N[C@H]1CC[C@@H](n2cnc(-c3ccc(OC(F)(F)F)cc3)c2Cl)CC1` [Example 321] reads 800%; that for `CC(C)(C)C(=O)N[C@H]1CC[C@@H](n2cnc(-c3ccc(Cl)cc3)c2Cl)CC1` [Example 322], 314%. Same read-out and setting: the result for `O=C(N[C@H]1CC[C@@H](n2cnc(-c3ccc(F)cc3)c2Cl)CC1)C1CCOCC1` [Example 323] reads 421%; that for `CC(C)(F)C(=O)N[C@H]1CC[C@@H](n2cnc(-c3ccc(OC(F)(F)F)c(F)c3)c2Cl)CC1` [Example 324], 860%.

For `CC(C)(F)C(=O)N[C@H]1CC[C@@H](n2cnc(-c3cccc(OC(F)(F)F)c3)c2Cl)CC1` [Example 325], the activity at 10 µM stood at 210%.

Consider `CC(C)(F)C(=O)N[C@H]1CC[C@@H](n2cnc(-c3cc(F)ccc3F)c2Cl)CC1` [Example 329], for which the activity at 10 µM was 643%.

As to `CC(C)(F)C(=O)N[C@H]1CC[C@@H](n2cnc(-c3ccc(F)c(OC(F)(F)F)c3)c2Cl)CC1` [Example 330], the activity at 10 µM turned out to be 154%. Regarding `CC(C)(F)C(=O)N[C@H]1CC[C@@H](n2cnc(-c3ccc(F)cc3)c2C#N)CC1` [Example 332, N-{cis-4-[5-cyano-4-(4-fluorophenyl)-1H-imidazol-1-yl]cyclohexyl}-2-fluoro-2-methylpropanamide], the activity at 10 µM was determined as 464%. Still for that read-out and setting: the result for `CC(C)(F)C(=O)N[C@H]1CC[C@@H](n2cnc(-c3ccc(Cl)cc3)c2C#N)CC1` [Example 333] reads 233%; that for `N#Cc1c(-c2ccc(F)cc2)ncn1[C@H]1CC[C@@H](NC(=O)C2CCC(F)(F)CC2)CC1` [Example 335], 312%.
